Measurements reported in ChEMBL document CHEMBL1649182, “Binding of faropenem and other beta-lactam agents to penicillin-binding proteins of pneumococci with various beta-lactam susceptibilities” (Antimicrob Agents Chemother, 2009).
≈ marks a conversion by molar mass, not a printed value.

Experiments:
[1] = tested on: Streptococcus pneumoniae; experiment: Antimicrobial activity against penicillin-intermediate Streptococcus pneumoniae 3243 by CLSI method; assay type: functional
[2] = Displacement of Biocillin FL from Streptococcus pneumoniae 3009 PBP1B
[3] = Displacement of Biocillin FL from Streptococcus pneumoniae 3413 PBP1B
[4] = target: T1, Penicillin-binding protein 2B (Streptococcus pneumoniae serotype 4 (strain ATCC BAA-334 / TIGR4), UniProt P0A3M5); experiment: Displacement of Biocillin FL from Streptococcus pneumoniae 3009 PBP2B
T1 sequence (P0A3M5 whole entry): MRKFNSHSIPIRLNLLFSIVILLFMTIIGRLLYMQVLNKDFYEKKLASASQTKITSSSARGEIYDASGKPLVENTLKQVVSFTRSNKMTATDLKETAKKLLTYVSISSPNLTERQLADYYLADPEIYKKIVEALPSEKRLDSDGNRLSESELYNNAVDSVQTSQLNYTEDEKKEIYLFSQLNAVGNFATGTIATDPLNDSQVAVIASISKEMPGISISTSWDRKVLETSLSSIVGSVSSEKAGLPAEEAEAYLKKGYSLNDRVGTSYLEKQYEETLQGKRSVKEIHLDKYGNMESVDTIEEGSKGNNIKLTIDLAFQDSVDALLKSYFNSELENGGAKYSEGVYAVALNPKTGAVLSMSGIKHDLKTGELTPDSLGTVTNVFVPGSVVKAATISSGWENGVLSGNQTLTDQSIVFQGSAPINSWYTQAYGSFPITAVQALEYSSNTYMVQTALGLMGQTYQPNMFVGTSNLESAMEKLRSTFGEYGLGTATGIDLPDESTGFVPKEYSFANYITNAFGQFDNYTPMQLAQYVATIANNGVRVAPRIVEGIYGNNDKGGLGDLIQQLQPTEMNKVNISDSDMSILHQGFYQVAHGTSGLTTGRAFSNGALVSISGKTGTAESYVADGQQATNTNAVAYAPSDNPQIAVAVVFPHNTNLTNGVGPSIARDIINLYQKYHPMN

[5] = tested on: Streptococcus pneumoniae; experiment: Antimicrobial activity against Streptococcus pneumoniae 1394 by CLSI method; assay type: functional
[6] = Displacement of Biocillin FL from Streptococcus pneumoniae 3665 PBP3
[7] = Displacement of Biocillin FL from Streptococcus pneumoniae 2527 PBP2A
[8] = target: T2, Penicillin-binding protein 2x (Streptococcus pneumoniae serotype 4 (strain ATCC BAA-334 / TIGR4), UniProt P14677); experiment: Displacement of Biocillin FL from Streptococcus pneumoniae 3243 PBP2X
T2 sequence (P14677 whole entry): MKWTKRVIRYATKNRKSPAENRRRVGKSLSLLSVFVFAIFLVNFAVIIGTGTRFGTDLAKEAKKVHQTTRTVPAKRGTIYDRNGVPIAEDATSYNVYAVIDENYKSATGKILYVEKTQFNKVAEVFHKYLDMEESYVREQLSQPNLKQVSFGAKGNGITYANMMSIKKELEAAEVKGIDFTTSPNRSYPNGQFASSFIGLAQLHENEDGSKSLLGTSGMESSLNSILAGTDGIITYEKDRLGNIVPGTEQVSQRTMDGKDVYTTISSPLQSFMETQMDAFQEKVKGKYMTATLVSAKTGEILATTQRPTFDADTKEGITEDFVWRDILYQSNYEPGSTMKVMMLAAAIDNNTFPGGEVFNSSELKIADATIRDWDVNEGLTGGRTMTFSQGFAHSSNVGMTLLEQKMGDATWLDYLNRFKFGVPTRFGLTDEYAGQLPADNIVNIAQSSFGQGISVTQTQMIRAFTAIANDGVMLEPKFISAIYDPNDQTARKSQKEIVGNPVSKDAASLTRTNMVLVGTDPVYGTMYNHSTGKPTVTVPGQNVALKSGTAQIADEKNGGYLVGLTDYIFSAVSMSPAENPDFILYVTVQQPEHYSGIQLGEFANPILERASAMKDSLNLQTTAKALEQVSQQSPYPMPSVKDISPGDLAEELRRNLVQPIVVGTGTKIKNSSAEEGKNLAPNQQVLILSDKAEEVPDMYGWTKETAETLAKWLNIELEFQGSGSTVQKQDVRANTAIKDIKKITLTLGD

[9] = tested on: Streptococcus pneumoniae; experiment: Antimicrobial activity against penicillin-sensitive Streptococcus pneumoniae 3009 by CLSI method; assay type: functional
[10] = Displacement of Biocillin FL from Streptococcus pneumoniae 1076 PBP2A
[11] = target: T3, Penicillin-binding protein 1A (Streptococcus pneumoniae serotype 4 (strain ATCC BAA-334 / TIGR4), UniProt Q04707); experiment: Displacement of Biocillin FL from Streptococcus pneumoniae 3413 PBP1A
T3 sequence (Q04707 whole entry): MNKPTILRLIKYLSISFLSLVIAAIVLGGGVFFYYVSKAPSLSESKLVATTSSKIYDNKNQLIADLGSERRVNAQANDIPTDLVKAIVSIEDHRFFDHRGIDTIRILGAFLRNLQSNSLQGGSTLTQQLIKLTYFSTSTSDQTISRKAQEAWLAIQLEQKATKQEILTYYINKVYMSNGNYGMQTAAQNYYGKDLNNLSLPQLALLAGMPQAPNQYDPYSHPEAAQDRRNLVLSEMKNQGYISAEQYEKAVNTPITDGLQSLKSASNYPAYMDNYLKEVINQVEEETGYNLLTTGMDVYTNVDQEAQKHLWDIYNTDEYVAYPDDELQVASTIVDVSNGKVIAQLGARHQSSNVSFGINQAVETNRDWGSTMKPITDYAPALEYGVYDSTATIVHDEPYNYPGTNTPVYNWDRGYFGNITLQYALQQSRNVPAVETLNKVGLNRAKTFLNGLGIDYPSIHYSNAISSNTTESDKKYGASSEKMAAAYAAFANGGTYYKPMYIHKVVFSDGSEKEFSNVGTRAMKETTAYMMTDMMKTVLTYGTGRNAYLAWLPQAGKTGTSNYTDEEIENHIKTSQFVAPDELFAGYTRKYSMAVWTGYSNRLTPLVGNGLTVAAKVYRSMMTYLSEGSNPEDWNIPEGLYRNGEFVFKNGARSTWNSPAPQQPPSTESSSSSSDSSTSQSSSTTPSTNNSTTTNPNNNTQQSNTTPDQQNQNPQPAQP

[12] = target: T1, Penicillin-binding protein 2B; experiment: Displacement of Biocillin FL from Streptococcus pneumoniae 24 PBP2B
[13] = tested on: Streptococcus pneumoniae; experiment: Antimicrobial activity against penicillin-resistant Streptococcus pneumoniae 3413 by CLSI method; assay type: functional
[14] = target: T3, Penicillin-binding protein 1A; experiment: Displacement of Biocillin FL from Streptococcus pneumoniae 3243 PBP1A
[15] = Displacement of Biocillin FL from Streptococcus pneumoniae 24 PBP2A
[16] = Displacement of Biocillin FL from Streptococcus pneumoniae 24 PBP2X
[17] = target: T3, Penicillin-binding protein 1A; experiment: Displacement of Biocillin FL from Streptococcus pneumoniae 1076 PBP1A
[18] = Displacement of Biocillin FL from Streptococcus pneumoniae 24 PBP1B
[19] = Displacement of Biocillin FL from Streptococcus pneumoniae 3413 PBP2A
[20] = Displacement of Biocillin FL from Streptococcus pneumoniae 3009 PBP3
[21] = Displacement of Biocillin FL from Streptococcus pneumoniae 1076 PBP3

SMILES	MIC [1]	IC50 [2]	IC50 [3]	IC50 [4]	MIC [5]	IC50 [6]	IC50 [7]	IC50 [8]	MIC [9]	IC50 [10]	IC50 [11]	IC50 [12]	MIC [13]	IC50 [14]	IC50 [15]	IC50 [16]	IC50 [17]	IC50 [18]	IC50 [19]	IC50 [20]	further results
C[C@@H](O)[C@H]1C(=O)N2C(C(=O)O)=C([C@H]3CCCO3)S[C@H]12 [FAROPENEM]	0.125 µg/mL (≈ 0.438 µM)	0.002 µg/mL (≈ 0.00701 µM)	0.019 µg/mL (≈ 0.0666 µM)	24.5 nM	0.03 µg/mL (≈ 0.105 µM)	0.005 µg/mL (≈ 0.0175 µM)	0.025 µg/mL (≈ 0.0876 µM)	137 nM	0.03 µg/mL (≈ 0.105 µM)	0.035 µg/mL (≈ 0.123 µM)	56.1 nM	116 nM	1 µg/mL (≈ 3.5 µM)	14 nM	0.023 µg/mL (≈ 0.0806 µM)	0.758 µg/mL (≈ 2.66 µM)	52.6 nM	0.06 µg/mL (≈ 0.21 µM)	0.007 µg/mL (≈ 0.0245 µM)	0.006 µg/mL (≈ 0.021 µM)	IC50 [21]: 0.015 µg/mL (≈ 0.0526 µM)
C[C@@H](O)[C@H]1C(=O)N2C(C(=O)O)=C(SCCNC=N)C[C@H]12 [IMIPENEM ANHYDROUS]	0.016 µg/mL (≈ 0.0534 µM)	0.009 µg/mL (≈ 0.0301 µM)	0.316 µg/mL (≈ 1.06 µM)	154 nM	0.25 µg/mL (≈ 0.835 µM)	0.171 µg/mL (≈ 0.571 µM)	0.059 µg/mL (≈ 0.197 µM)	635 nM	0.008 µg/mL (≈ 0.0267 µM)	0.054 µg/mL (≈ 0.18 µM)	2070 nM	441 nM	0.125 µg/mL (≈ 0.418 µM)	608 nM	0.352 µg/mL (≈ 1.18 µM)	2.048 µg/mL (≈ 6.84 µM)	301 nM	0.71 µg/mL (≈ 2.37 µM)	0.337 µg/mL (≈ 1.13 µM)	0.039 µg/mL (≈ 0.13 µM)	IC50 [21]: 0.032 µg/mL (≈ 0.107 µM)
CC1(C)S[C@@H]2[C@H](NC(=O)Cc3ccccc3)C(=O)N2[C@H]1C(=O)O [PENICILLIN G]	0.25 µg/mL (≈ 0.748 µM)	0.001 µg/mL (≈ 0.00299 µM)	0.205 µg/mL (≈ 0.613 µM)	20.9 nM	4 µg/mL (≈ 12 µM)	0.01 µg/mL (≈ 0.0299 µM)	0.023 µg/mL (≈ 0.0688 µM)	20.9 nM	0.03 µg/mL (≈ 0.0897 µM)	0.02 µg/mL (≈ 0.0598 µM)	59.8 nM	332 nM	4 µg/mL (≈ 12 µM)	23.9 nM	0.133 µg/mL (≈ 0.398 µM)	0.323 µg/mL (≈ 0.966 µM)	47.8 nM	0.248 µg/mL (≈ 0.742 µM)	0.015 µg/mL (≈ 0.0449 µM)	0.001 µg/mL (≈ 0.00299 µM)	IC50 [21]: 0.016 µg/mL (≈ 0.0478 µM)
CC1(C)S[C@@H]2[C@H](NC(=O)[C@H](N)c3ccc(O)cc3)C(=O)N2[C@H]1C(=O)O [AMOXICILLIN]	0.06 µg/mL (≈ 0.164 µM)	0.059 µg/mL (≈ 0.161 µM)	0.035 µg/mL (≈ 0.0958 µM)	137 nM	8 µg/mL (≈ 21.9 µM)	0.019 µg/mL (≈ 0.052 µM)	0.051 µg/mL (≈ 0.14 µM)	49.3 nM	0.016 µg/mL (≈ 0.0438 µM)	0.08 µg/mL (≈ 0.219 µM)	339 nM	482 nM	2 µg/mL (≈ 5.47 µM)	161 nM	0.077 µg/mL (≈ 0.211 µM)	0.117 µg/mL (≈ 0.32 µM)	120 nM	1.103 µg/mL (≈ 3.02 µM)	0.034 µg/mL (≈ 0.093 µM)	0.047 µg/mL (≈ 0.129 µM)	IC50 [21]: 0.051 µg/mL (≈ 0.14 µM)
CO/N=C(\C(=O)N[C@@H]1C(=O)N2C(C(=O)O)=C(COC(N)=O)CS[C@H]12)c1ccco1 [CEFUROXIME]	0.25 µg/mL (≈ 0.589 µM)	0.024 µg/mL (≈ 0.0566 µM)	0.032 µg/mL (≈ 0.0754 µM)	3900 nM	16 µg/mL (≈ 37.7 µM)	0.047 µg/mL (≈ 0.111 µM)	0.01 µg/mL (≈ 0.0236 µM)	33 nM	0.03 µg/mL (≈ 0.0707 µM)	0.004 µg/mL (≈ 0.00943 µM)	2.36 nM	89.5 nM	4 µg/mL (≈ 9.43 µM)	14.1 nM	0.016 µg/mL (≈ 0.0377 µM)	0.198 µg/mL (≈ 0.467 µM)	9.43 nM	0.923 µg/mL (≈ 2.17 µM)	0.002 µg/mL (≈ 0.00471 µM)	0.024 µg/mL (≈ 0.0566 µM)	IC50 [21]: 0.021 µg/mL (≈ 0.0495 µM)
